From patent publication US20150105458A1, “LINE LEAF INULA FLOWER LACTONE A AND METHODS FOR PREPARING AND USING THE SAME FOR TREATING MULTIPLE SCLEROSIS” (SHANXI ZHENDONG PILOT BIOLOGICAL SCIENCE AND TECHNOLOGY …, priority 2012, published 2015)

How the values were obtained:
EAE mice = experiment: EAE model in mice, clinical course (onset and severity); assay type: in vivo, C57BL/6 mice; details: intragastric administration, 50 mg/kg once per day and higher doses, day 0 to day 30; FIG. 1
Method: (§1) EAE was induced in C57BL/6 mice (six mice per group) by subcutaneous injection of 0.1 ml of […] (in PBS, 300 μg/per mouse) on day 0, emulsified with Complete Freund's adjuvant (1:1) supplemented with Mycobacterium tuberculosis H37Ra antigen (400 μg/per mouse) or with Complete Freund's adjuvant alone as a control. All mice immunized with MOG received 250 ng pertussis toxin prepared in PBS, on days 0 and 2 by intraperitoneal injection.
(§2) Line leaf inula flower lactone A 45.3 g (from Example 1) was suspended in 0.5% CMC—Na (carboxymethyl cellulose sodium) to make a mixture with final concentration as 10 mg/ml, then diluted to four concentration gradients: (1) 25 mg/kg per day; (2) 50 mg/kg per day; (3) 100 mg/kg per day; (4) 200 mg/kg per day. The drug was given to the mice by intragastric administration from day 0 to day 30.

brain tissue of EAE mice = experiment: HE staining of brain tissue of EAE mice; assay type: in vivo, C57BL/6 mice; details: intragastric administration, 50 mg/kg and higher doses; FIG. 2
Method: as §1, §2

C=C1C(=O)O[C@H]2C[C@@H](C)[C@@H]3[C@@H](OC(C)=O)C[C@H](O)[C@@]3(C)[C@@H](OC(C)=O)[C@H]12 [line leaf inula flower lactone A]
onset of EAE (EAE mice): significantly delay the onset of EAE | severity of the disease (EAE) (EAE mice): reduced the severity of the disease | arrangement of the organization (brain tissue, HE staining) (brain tissue of EAE mice): basically returned to normal condition | inflammatory cells in brain and blood vessels (HE staining) (brain tissue of EAE mice): reduced number of inflammatory cells in brain and blood vessels
